Measured values published in paper PMC7584476, “Safety and efficacy of BAY1436032 in IDH1-mutant AML: phase I study results” (Leukemia, 2020).
“Also recorded” adds a separate entry of the source.

System: subjects with mIDH1 advanced AML
Experiment: Phase I study: safety and tolerability (TEAE, DLT, MTD, ECG)
Type: in vivo
Protocol: This study was an open-label, nonrandomized, multicenter phase I trial. Subjects were screened at 13 hospital sites in 2 countries (USA and Germany). The study was to consist of dose-escalation followed by dose-expansion. The MTD identified in dose-escalation was to be used in the dose-expansion. If MTD was not reached in dose-escalation, a dose for the expansion would be selected based on available PK, pharmacodynamic, safety, and efficacy data. BAY1436032 was administered twice-daily (BID) in continuous 28-day cycles. In dose-escalation, up to 9 evaluable subjects could be enrolled per cohort, with a minimum of 3 dose-limiting toxicity (DLT)-free evaluable subjects required prior to escalating to the next highest dose. Bayesian dose-DLT modeling was performed to help guide dosing decisions.
DLTs were differentially defined for nonhematopoietic versus hematopoietic toxicities. Nonhematopoietic toxicities of ≥grade 3 occurring during the first cycle of treatment were to be considered DLTs with the following exceptions: (1) Alopecia and nausea controlled by medical management; (2) Tumor lysis syndrome if successfully managed clinically and resolved within 7 days without any end-organ damage; (3) Differentiation syndrome (DS) if successfully managed clinically and resolved within 7 days without any end-organ damage; (4) Asymptomatic ≥grade 3 electrolyte abnormalities not considered clinically significant by the investigator. […] For certain toxicities such as laboratory assessments without a clear clinical correlate, a discussion between the investigator and the sponsor determined whether the adverse event (AE) should be assessed as a DLT.
DLTs identified during the first cycle of treatment were used to guide dose-escalation decisions and to determine the MTD, and if safety issues appeared in subsequent cycles they were also to be considered. Hydroxyurea was permitted during the first cycle if white blood cell (WBC) exceeded 20 × 10^9/L and was also permitted for treatment of DS.
Safety and tolerability were evaluated by analysis of adverse events, physical examinations, vital signs, ECOG performance status, and various laboratory assessments. For safety monitoring, subjects were scheduled for clinic visits every week for the initial three cycles of treatment, after which time visits could be reduced to every-other-week with investigator and sponsor agreement. Cardiac function was assessed with triplicate 12-lead electrocardiograms (ECG) at screening, C1-D1, C1-D2, C1-D15, D1 of every subsequent cycle, and at treatment end. […] AEs are presented by the Medical Dictionary for Regulatory Activities (MedDRA) v21.1.

C[C@H]1C[C@@H](n2c(Nc3ccc(OC(F)(F)F)cc3)nc3cc(CCC(=O)O)ccc32)CC(C)(C)C1 [BAY1436032]
TEAE Sepsis Grade 5 (1500 mg BID, n=9): 1 | TEAE Sinus tachycardia Grade 1 (1500 mg BID, n=9): 1 | TEAE Thrombocytopenia Grade 4 (1500 mg BID, n=9): 2 | TEAE Vomiting Grade 1 (1500 mg BID, n=9): 3 | TEAE Weight decreased Grade 1 (1500 mg BID, n=9): 0 | TEAE Weight decreased Grade 2 (1500 mg BID, n=9): 0 | TEAE Weight decreased Grade 3 (1500 mg BID, n=9): 1 | Deaths during treatment or within 30 days of discontinuation (27 treated): Six of 27 | Related TEAE DS grade 3 (27 treated): single subject | Related TEAE Fatigue Grade 3 (27 treated): single subject | Related TEAE amylase increase grade 3 (27 treated): single subject | Related TEAE anemia grade 4 (27 treated): single subject | Related TEAE decreased WBC count grade 3 (27 treated): single subject | Related TEAE decreased neutrophil count grade 4 (27 treated): single subject | Related TEAE decreased platelet count grade 4 (27 treated): single subject | Related TEAE febrile neutropenia grade 3 (27 treated): single subject | Related TEAE hyponatremia grade 3 (27 treated): single subject | Related TEAE ileus grade 4 (27 treated): single subject | Related TEAE lung infiltration grade 3 (27 treated): single subject | Related TEAE peripheral edema grade 3 (27 treated): single subject | Related TEAE pneumonitis grade 3 (27 treated): single subject | Related TEAE sepsis grade 4 (27 treated): single subject | Subjects with DS or symptoms associated with DS (27 treated): 19% | Subjects with at least 1 TEAE of any grade related to BAY1436032 (27 treated): Seventeen of 27 | Subjects with at least 1 TEAE of ≥grade 3 related to BAY1436032 (27 treated): Seven of 27 | Subjects with at least 1 TEAE ≥ grade 3 irrespective of relationship (27 treated): Twenty-four | Maximum tolerated dose (300 to 1500 mg BID): not identified; also recorded: No MTD was identified | Related TEAE Decreased appetite Grade 1 (Total, n=27): 1 (4) n (%) | Related TEAE Decreased appetite Grade 2 (Total, n=27): 1 (4) n (%) | Related TEAE Diarrhea Grade 2 (Total, n=27): 2 (7) n (%) | Related TEAE Differentiation syndrome Grade 2 (Total, n=27): 1 (4) n (%) | Related TEAE Differentiation syndrome Grade 3 (Total, n=27): 1 (4) n (%) | Related TEAE Dyspnea Grade 1 (Total, n=27): 2 (7) n (%) | Related TEAE Dyspnea Grade 2 (Total, n=27): 1 (4) n (%) | Related TEAE Fatigue Grade 1 (Total, n=27): 1 (4) n (%) | Related TEAE Fatigue Grade 2 (Total, n=27): 2 (7) n (%) | Related TEAE Fatigue Grade 3 (Total, n=27): 1 (4) n (%) | Related TEAE Hypomagnesaemia Grade 1 (Total, n=27): 2 (7) n (%) | Related TEAE Nausea Grade 1 (Total, n=27): 4 (15) n (%) | Related TEAE Nausea Grade 2 (Total, n=27): 1 (4) n (%) | Related TEAE Sinus tachycardia Grade 1 (Total, n=27): 2 (7) n (%) | Related TEAE Vomiting Grade 1 (Total, n=27): 4 (15) n (%) | TEAE Abdominal pain upper Grade 1 (Total, n=27): 2 (7) n (%) | TEAE Abdominal pain upper Grade 2 (Total, n=27): 1 (4) n (%) | TEAE Acute kidney injury Grade 1 (Total, n=27): 1 (4) n (%) | TEAE Acute kidney injury Grade 2 (Total, n=27): 1 (4) n (%) | TEAE Acute kidney injury Grade 3 (Total, n=27): 1 (4) n (%) | TEAE Anaemia Grade 3 (Total, n=27): 4 (15) n (%) | TEAE Anaemia Grade 4 (Total, n=27): 1 (4) n (%) | TEAE Anxiety Grade 1 (Total, n=27): 2 (7) n (%) | TEAE Anxiety Grade 2 (Total, n=27): 1 (4) n (%) | TEAE Arthralgia Grade 1 (Total, n=27): 1 (4) n (%) | TEAE Arthralgia Grade 2 (Total, n=27): 2 (7) n (%) | TEAE Constipation Grade 1 (Total, n=27): 4 (15) n (%) | TEAE Constipation Grade 2 (Total, n=27): 1 (4) n (%) | TEAE Contusion Grade 1 (Total, n=27): 3 (11) n (%) | TEAE Contusion Grade 2 (Total, n=27): 1 (4) n (%) | TEAE Cough Grade 1 (Total, n=27): 3 (11) n (%) | TEAE Cough Grade 2 (Total, n=27): 2 (7) n (%) | TEAE Decreased appetite Grade 1 (Total, n=27): 5 (19) n (%) | TEAE Decreased appetite Grade 2 (Total, n=27): 3 (11) n (%) | TEAE Decreased appetite Grade 3 (Total, n=27): 1 (4) n (%) | TEAE Diarrhea Grade 1 (Total, n=27): 7 (26) n (%) | TEAE Diarrhea Grade 2 (Total, n=27): 3 (11) n (%) | TEAE Dry skin Grade 1 (Total, n=27): 5 (19) n (%) | TEAE Dyspnoea Grade 1 (Total, n=27): 4 (15) n (%) | TEAE Dyspnoea Grade 2 (Total, n=27): 2 (7) n (%) | TEAE Dyspnoea Grade 3 (Total, n=27): 3 (11) n (%) | TEAE Epistaxis Grade 1 (Total, n=27): 3 (11) n (%) | TEAE Epistaxis Grade 2 (Total, n=27): 2 (7) n (%) | TEAE Epistaxis Grade 3 (Total, n=27): 1 (4) n (%) | TEAE Fall Grade 1 (Total, n=27): 4 (15) n (%) | TEAE Fatigue Grade 1 (Total, n=27): 4 (15) n (%) | TEAE Fatigue Grade 2 (Total, n=27): 4 (15) n (%) | TEAE Fatigue Grade 3 (Total, n=27): 3 (11) n (%) | TEAE Febrile neutropenia Grade 3 (Total, n=27): 7 (26) n (%) | TEAE General physical health deterioration Grade 3 (Total, n=27): 2 (7) n (%) | TEAE General physical health deterioration Grade 5 (Total, n=27): 1 (4) n (%) | TEAE Gingivitis Grade 1 (Total, n=27): 3 (11) n (%) | TEAE Haematuria Grade 1 (Total, n=27): 2 (7) n (%) | TEAE Haematuria Grade 2 (Total, n=27): 1 (4) n (%) | TEAE Haematuria Grade 3 (Total, n=27): 1 (4) n (%) | TEAE Headache Grade 1 (Total, n=27): 1 (4) n (%) | TEAE Headache Grade 2 (Total, n=27): 2 (7) n (%) | TEAE Headache Grade 3 (Total, n=27): 1 (4) n (%) | TEAE Hyperkalaemia Grade 1 (Total, n=27): 2 (7) n (%) | TEAE Hyperkalaemia Grade 4 (Total, n=27): 1 (4) n (%) | TEAE Hypertension Grade 2 (Total, n=27): 2 (7) n (%) | TEAE Hypertension Grade 3 (Total, n=27): 1 (4) n (%) | TEAE Hyperuricaemia Grade 1 (Total, n=27): 4 (15) n (%) | TEAE Hyperuricaemia Grade 3 (Total, n=27): 1 (4) n (%) | TEAE Hypokalaemia Grade 1 (Total, n=27): 3 (11) n (%) | TEAE Hypokalaemia Grade 2 (Total, n=27): 1 (4) n (%) | TEAE Hypokalaemia Grade 3 (Total, n=27): 2 (7) n (%) | TEAE Hyponatraemia Grade 1 (Total, n=27): 2 (7) n (%) | TEAE Hyponatraemia Grade 3 (Total, n=27): 1 (4) n (%) | TEAE Hypophosphataemia Grade 1 (Total, n=27): 1 (4) n (%) | TEAE Hypophosphataemia Grade 2 (Total, n=27): 2 (7) n (%) | TEAE Leukocytosis Grade 2 (Total, n=27): 2 (7) n (%) | TEAE Leukocytosis Grade 3 (Total, n=27): 2 (7) n (%) | TEAE Lung infection Grade 3 (Total, n=27): 3 (11) n (%) | TEAE Lung infection Grade 5 (Total, n=27): 1 (4) n (%) | TEAE Nausea Grade 1 (Total, n=27): 5 (19) n (%) | TEAE Nausea Grade 2 (Total, n=27): 2 (7) n (%) | TEAE Nausea Grade 3 (Total, n=27): 2 (7) n (%) | TEAE Oedema peripheral Grade 1 (Total, n=27): 6 (22) n (%) | TEAE Oedema peripheral Grade 3 (Total, n=27): 2 (7) n (%) | TEAE Pain in extremity Grade 1 (Total, n=27): 2 (7) n (%) | TEAE Pain in extremity Grade 2 (Total, n=27): 1 (4) n (%) | TEAE Pneumonia Grade 1 (Total, n=27): 1 (4) n (%) | TEAE Pneumonia Grade 2 (Total, n=27): 2 (7) n (%) | TEAE Pneumonia Grade 3 (Total, n=27): 3 (11) n (%) | TEAE Pneumonia fungal Grade 2 (Total, n=27): 1 (4) n (%) | TEAE Pneumonia fungal Grade 3 (Total, n=27): 1 (4) n (%) | TEAE Pneumonia fungal Grade 4 (Total, n=27): 1 (4) n (%) | TEAE Productive cough Grade 1 (Total, n=27): 2 (7) n (%) | TEAE Productive cough Grade 2 (Total, n=27): 1 (4) n (%) | TEAE Pyrexia Grade 1 (Total, n=27): 4 (15) n (%) | TEAE Pyrexia Grade 2 (Total, n=27): 1 (4) n (%) | TEAE Pyrexia Grade 3 (Total, n=27): 3 (11) n (%) | TEAE Rash Grade 1 (Total, n=27): 1 (4) n (%) | TEAE Rash Grade 2 (Total, n=27): 3 (11) n (%) | TEAE Sepsis Grade 4 (Total, n=27): 3 (11) n (%) | TEAE Sepsis Grade 5 (Total, n=27): 2 (7) n (%) | TEAE Sinus tachycardia Grade 1 (Total, n=27): 3 (11) n (%) | TEAE Thrombocytopenia Grade 4 (Total, n=27): 3 (11) n (%) | TEAE Vomiting Grade 1 (Total, n=27): 7 (26) n (%) | TEAE Weight decreased Grade 1 (Total, n=27): 3 (11) n (%) | TEAE Weight decreased Grade 2 (Total, n=27): 3 (11) n (%) | TEAE Weight decreased Grade 3 (Total, n=27): 1 (4) n (%) | Subjects with DS or symptoms associated with DS (count of 27 treated): Five of 27 | Dose-limiting toxicities (grade 4 ileus, subject 21, cohort 4): single DLT | Clinically significant ECG changes such as QTc prolongation related to treatment (in vivo): no clinically significant ECG | Deaths attributed to study drug (in vivo): none | Episodes of ≥grade 3 QT prolongation (in vivo): no episodes
